Experimental data: PubChem BioAssay (NCI)
Values joined by “and” are separate entries in the source; they are usually repeats but may differ in a detail not shown here. Identical values can stand only once.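 Cells were grown in 96-well plates and exposed to each compound for 48 hours at five concentrations; endpoints were interpolated linearly between bracketing concentrations, or set to the highest concentration if not reached. At the GI50, growth is halved. TGI: concentration producing complete growth inhibition.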

Columns and labels:
Assay in all cases: NCI anticancer screen, dose series, 48 h
786-0 renal = test system: 786-0 renal
A549 NSCLC = test system: A549 NSCLC
CCRF-CEM leukemia = test system: CCRF-CEM leukemia
HCT-15 colon = test system: HCT-15 colon
HOP-62 NSCLC = test system: HOP-62 NSCLC
M14 melanoma = test system: M14 melanoma
MCF7 breast = test system: MCF7 breast
NCI-H460 lung = test system: NCI-H460 lung
SK-MEL-28 melanoma = test system: SK-MEL-28 melanoma
SK-MEL-5 melanoma = test system: SK-MEL-5 melanoma

Compound	GI50 (786-0 renal) [µM]	TGI (786-0 renal) [µM]	GI50 (A549 NSCLC) [µM]	TGI (A549 NSCLC) [µM]	GI50 (CCRF-CEM leukemia) [µM]	TGI (CCRF-CEM leukemia) [µM]	GI50 (HCT-15 colon)	TGI (HCT-15 colon)	GI50 (HOP-62 NSCLC) [µM]	TGI (HOP-62 NSCLC) [µM]	GI50 (M14 melanoma) [µM]	TGI (M14 melanoma) [µM]	GI50 (MCF7 breast) [µM]	TGI (MCF7 breast) [µM]	GI50 (NCI-H460 lung) [µM]	TGI (NCI-H460 lung) [µM]	GI50 (SK-MEL-28 melanoma) [µM]	TGI (SK-MEL-28 melanoma) [µM]	GI50 (SK-MEL-5 melanoma) [µM]	TGI (SK-MEL-5 melanoma) [µM]
CN(C)c1cc(NN=C(c2ccc(O)cc2)c2ccc(O)cc2)c([N+](=O)[O-])cc1[N+](=O)[O-]	10.9	25.1	4.45	18.5	2.58	17.9	4.02 µM	17.7 µM	10.5	26.1	9.06	22.6	3.42	16	4.36	15.9	2.85	10.5	3.17	14.4
CC(C)[C@@H]1C=C2CC[C@H]3[C@](C)(CN)CCC[C@]3(C)[C@H]2CC1	2.02	4.1	3.07	11	3.39	13.8	2.08 µM	4.94 µM	3.33	10.9	1.86	3.4	1.62	3.06	1.8	3.34	16.9	30.7	13.1	25.8
O=S(=O)(c1ccccc1)N1CCN(S(=O)(=O)c2ccccc2)c2ccccc21	–	> 100	–	> 100	–	–	–	> 100 µM	–	> 100	–	> 100	–	> 100	–	> 100	–	> 100	–	> 100
COc1ccc(CCN=C2NC(=O)/C(=C/c3ccc4ncccc4c3)S2)cc1	> 25	> 25	> 25	> 25	> 25	> 25	> 25 µM	> 25 µM	> 25	> 25	> 25	> 25	> 25	> 25	> 25	> 25	> 25	> 25	> 25	> 25
O=C1CN(c2cccc(Cl)c2)C(=O)CN1CCN1CC(=O)N(c2cccc(Cl)c2)CC1=O	–	> 100	–	> 100	–	> 100	–	> 100 µM	–	> 100	–	> 100	–	> 100	–	> 100	–	> 100	–	> 100
CCOC(=O)C1=C(C(=O)OCC)C2c3ccccc3C=CN2C(C(=O)OCC)=C(SC)S1 (stereo not drawn)	–	> 100	–	> 100	–	> 100	–	> 100 µM	–	> 100	–	> 100	–	–	–	> 100	–	> 100	–	> 100
O=S(=O)(N/N=C/c1cccc(/C=N/NS(=O)(=O)c2ccccc2)c1)c1ccccc1	–	> 100	–	> 100	–	> 100	–	> 100 µM	–	> 100	–	> 100	–	–	–	> 100	–	> 100	–	> 100
O=C(/C(=C/c1ccc([N+](=O)[O-])cc1)SCc1ccccc1)c1ccc(Cl)cc1	1.77	3.41	15.1	32.2	2.12	> 100	2.14 µM	5.41 µM	4.52	17.7	2.63	8.59	–	–	5.34	20.3	4.09	15.3	3.41	12.4
CCCCN(CCCC)C(=O)C(=O)C(C(=O)c1ccc(OC)cc1)c1ccc(OC)cc1 (stereo not drawn)	–	> 100	–	> 100	–	> 100	–	> 100 µM	–	> 100	–	> 100	–	–	–	> 100	–	> 100	–	> 100
COc1ccc(OC)c(N2CC(N)C2=O)c1 (stereo not drawn)	–	> 100	–	> 100	–	> 100	–	> 100 µM	–	> 100	–	> 100	–	–	–	> 100	–	> 100	–	> 100
Cc1ccc(Oc2ccc(C)cc2N)cc1	–	> 100	–	> 100	–	> 100	–	> 100 µM	–	> 100	–	> 100	–	–	–	> 100	–	> 100	–	> 100
CC(=O)NNc1nc(C)c(C(=O)/C=C/c2ccc(NC(C)=O)cc2)s1	–	> 100	–	> 100	–	> 100	–	> 100 µM	–	> 100	–	–	–	–	–	> 100	–	> 100	–	> 100
CC(=O)O/N=C(/C)c1ccccc1O	–	> 100	–	> 100	–	> 100	–	–	–	> 100	–	> 100	–	–	–	> 100	–	> 100	–	–
O=C(Nc1ccccc1-c1nn(C(=S)Nc2ccccc2)c(=S)n(C(=S)Nc2ccccc2)c1=O)C(F)(F)F	–	> 100	–	> 100	–	62.1	–	> 78.3 µM	–	> 100	–	53.3	–	–	–	> 100	–	> 100	–	26
COC(=O)C(CCCN1C(=O)c2ccccc2C1=O)C(=O)OC	–	> 100	–	> 100	–	> 100	–	> 100 µM	–	> 100	–	> 100	–	–	–	> 100	–	> 100	–	> 100
CC(C)(C)c1cc2c(O)c3cccc4c(=O)c5cccc6c5-c(c34)c2c(c1)c6=O	–	> 100	–	> 100	–	> 100	–	> 100 µM	–	> 100	–	> 100	–	–	–	> 100	–	–	–	–
Cc1ccc(/C=C/C(=O)CCN(C)C)cc1	–	32.6	–	38.4	–	72.4	–	38.2 µM	–	> 100	–	38.7	–	–	–	65.6	–	33.8	–	34.4
C/C(=N/Nc1ccc([N+](=O)[O-])cc1[N+](=O)[O-])C(CC(C(=O)NCc1ccccc1)/C(C)=N\Nc1ccc([N+](=O)[O-])cc1[N+](=O)[O-])C(=O)NCc1ccccc1 (stereo not drawn)	–	13.1	–	14.6	–	–	–	26 µM	–	13.9	–	21.9	–	–	–	17.5	–	22.4	–	–
Cc1cccc(C)c1NC(=O)CCCC(=O)C1/C(=N/NC(=O)CC#N)CCC/C1=N\NC(=O)CC#N (stereo not drawn)	–	> 100	–	> 100	–	> 100	–	> 100 µM	–	> 100	–	> 100	–	–	–	> 100	–	> 100	–	> 100
NC(=O)C(=Cn1c(=S)[nH]c2ccc([N+](=O)[O-])cc21)C(N)=O	–	> 100	–	> 100	–	–	–	> 100 µM	–	> 100	–	> 100	–	–	–	> 100	–	> 100	–	> 100

Compound	GI50 (786-0 renal) [µM]	TGI (786-0 renal) [µM]	GI50 (A549 NSCLC) [µM]	TGI (A549 NSCLC) [µM]	GI50 (CCRF-CEM leukemia) [µM]	TGI (CCRF-CEM leukemia) [µM]	GI50 (HCT-15 colon)	TGI (HCT-15 colon)	GI50 (HOP-62 NSCLC) [µM]	TGI (HOP-62 NSCLC) [µM]	GI50 (M14 melanoma) [µM]	TGI (M14 melanoma) [µM]	GI50 (MCF7 breast) [µM]	TGI (MCF7 breast) [µM]	GI50 (NCI-H460 lung) [µM]	TGI (NCI-H460 lung) [µM]	GI50 (SK-MEL-28 melanoma) [µM]	TGI (SK-MEL-28 melanoma) [µM]	GI50 (SK-MEL-5 melanoma) [µM]	TGI (SK-MEL-5 melanoma) [µM]
COc1ccc(C)cc1-c1cc(Sc2ccccc2)c(-c2cc(C)ccc2OC)o1	–	> 31.6	–	> 31.6	–	> 31.6	–	> 31.6 µM	–	> 31.6	–	> 31.6	–	–	–	> 31.6	–	> 31.6	–	> 31.6
COc1nc(NC2OC(COC(C)=O)C(OC(C)=O)C(OC(C)=O)C2OC(C)=O)c2c(OC(C)=O)cc(=O)oc2n1 (stereo not drawn)	–	> 100	–	> 100	–	> 100	–	> 100 µM	–	> 100	–	> 100	–	–	–	34.1	–	–	–	> 100
CCc1c(OC(C)=O)c2c(NC3OCC(OC(C)=O)C(OC(C)=O)C3OC(C)=O)nc(SC)nc2oc1=O (stereo not drawn)	–	> 100	–	> 100	–	> 100	–	> 100 µM	–	> 100	–	> 100	–	–	–	> 100	–	–	–	> 100
C/C(CCn1[nH]c(=O)ccc1=O)=N\NC(=O)C(=O)NN	–	> 100	–	> 100	–	> 100	–	> 100 µM	–	> 100	–	> 100	–	–	–	> 100	–	> 100	–	> 100
CC(=O)N(C(=O)CC(=O)N1N=C(c2ccccc2)C(N=Nc2ccccc2[N+](=O)[O-])C1=O)c1ccc(Cl)cc1 (stereo not drawn)	–	> 10	–	> 10	–	> 10	–	> 10 µM	–	> 10	–	–	–	> 10	–	> 10	–	> 10	–	> 10
Cc1ccc(/C=C/C(=O)c2cccc3ccccc23)cc1	–	28.2	–	43.2	–	67	–	35.3 µM	–	37.7	–	39.5	–	–	–	30.7	–	35.4	–	–
O=C1C=CC(=O)c2nc3c(cc21)CCC3	–	33.4	–	> 100	–	25.6	–	–	–	> 100	–	31	–	–	–	> 100	–	40.4	–	45.9
CC(=O)OCCOCNC(=S)N/N=C(\C)c1cnccn1	–	> 100	–	> 100	–	> 100	–	> 100 µM	–	> 100	–	54.7	–	–	–	> 100	–	> 100	–	32.7
COC(=O)CC(c1ccccc1)C1(c2ccccc2)SCCS1 (stereo not drawn)	–	> 290	–	> 290	–	> 290	–	> 290 µM	–	> 290	–	–	–	–	–	> 290	–	> 290	–	> 290
Cc1ccc(-n2c3nc(=O)[nH]c(=O)c-3cc3cc([N+](=O)[O-])ccc32)cc1	10.3	29.5	44.6	> 100	4.67	> 100	25.5 µM	> 100 µM	2.57	11.8	17.3	36.6	–	–	17.1	> 100	15.7	42.2	16	36.8
O=C1CCC2(c3ccc(Cl)cc3)Nc3ccncc3N12 (stereo not drawn)	–	> 10	–	> 10	–	> 10	–	> 10 µM	–	–	–	> 10	–	–	–	> 10	–	–	–	–
O=C(Oc1ccc(Cl)cc1)c1ccccc1Nc1ccnc(C(F)(F)F)c1	2.71	9.75	15.3	52.3	4.94	52.8	2.07 µM	5.13 µM	–	–	2.12	4.53	3.73	14.7	10.5	35.4	–	–	16.8	36.2
CC(C)(C)c1cc2ccc(C(N)=O)cc2c(=O)[nH]1	–	> 100	–	> 100	–	> 100	–	> 100 µM	–	> 100	–	> 100	–	–	–	> 100	–	> 100	–	> 100
COc1cc(-c2ccc3cc(OC)c(OC)c(OC)c3c2)cc(OC)c1OC	20.9	> 100	7.66	> 100	> 100	> 100	6.03 µM	> 100 µM	16.1	75.4	9.52	> 100	> 100	> 100	–	–	> 100	> 100	–	–
COc1ccc(-c2cn[nH]c2-c2cc(OC)c(OC)c(OC)c2)cc1	0.0656	7.76	0.0346	> 38.7	0.0353	> 42.6	0.0217 µM	21.8 µM	0.0352	33.7	–	–	0.0284	16.8	0.0351	10.5	0.0376	32	0.0243	0.226
CN(C)CCn1c2c3ccccc3ccc2c2oc(=O)c3ccccc3c21	–	7.14	–	15.3	–	> 100	–	46.9 µM	–	28.3	–	19.1	–	–	–	13.4	–	18.4	–	–
NC(=O)c1ccccc1NC(=O)C(=O)C(C(=O)c1ccc(Cl)c(Cl)c1)C1OC(=O)c2ccccc21 (stereo not drawn)	–	> 100	–	> 100	–	> 100	–	> 100 µM	–	> 100	–	> 100	–	–	–	–	–	–	–	–
Cc1cc2c(C)[nH]nc2c(C(=O)O)c1C	–	> 100	–	> 100	–	> 100	–	> 100 µM	–	> 100	–	–	–	–	–	> 100	–	> 100	–	–
COC[C@H]1Cn2cc(-c3nc(Nc4ccnn4C)ncc3C)nc2C(=O)N1Cc1ccc(F)c(F)c1	88	> 100	3.23	> 100	29.3	> 100	28.3 µM	> 100 µM	1.15	> 100	0.0403	> 100	9.79	> 100	12.3	> 100	–	–	9.51	> 83.3
CCCCCCCCCCCCCCCC[N+](C)(C)Cc1ccccc1	1.52	2.93	–	–	–	–	2.86 µM and 3.24 µM	15.8 µM and > 30.4 µM	–	–	1.2	2.49	–	–	–	–	1.68	3.19	1.33	2.62
